Key:
Assay in all cases: normalised viability (% of control), CellTiter-Blue; higher = more viable cells (about 100 = DMSO control)
Conditions in all cases: incubation time: 72 h
BT-549 = test system: BT-549
Summary of the method: (§1)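 Seeded at 20 µl suspension per well onto compound-loaded 384-well plates, breast cancer cell lines were incubated 72 h. CellTiter-Blue fluorescence at 560/590 nm was then read, with each plate normalised to vehicle (100) and a positive kill control (0). Normalised viability is reported at a single listed concentration of the series.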

CAL-148 = test system: CAL-148
Summary of the method: as §1

CAL-85-1 = test system: CAL-85-1
Summary of the method: as §1

DU-4475 = test system: DU-4475
Summary of the method: as §1

HCC1599 = test system: HCC1599
Summary of the method: as §1

Hs578T = test system: Hs578T
Summary of the method: as §1

MDA-MB-436 = test system: MDA-MB-436
Summary of the method: as §1

MDA-MB-453 = test system: MDA-MB-453
Summary of the method: as §1

Compound: O=P1(NCCCl)OCCCN1CCCl (stereo unspecified) [Ifosfamide]
- normalised viability (BT-549; 10 nM): 79.4%
- normalised viability (BT-549; 1000 nM): 90.8%
- normalised viability (BT-549; 10000 nM): 96.7%
- normalised viability (CAL-148; 3 nM): 89.8%
- normalised viability (CAL-148; 30 nM): 92%
- normalised viability (CAL-148; 100 nM): 93%
- normalised viability (CAL-85-1; 3 nM): 88.3%
- normalised viability (CAL-85-1; 30 nM): 89.1%
- normalised viability (CAL-85-1; 100 nM): 95.7%
- normalised viability (DU-4475; 3 nM): 88.5%
- normalised viability (DU-4475; 30 nM): 101%
- normalised viability (DU-4475; 100 nM): 81.9%
- normalised viability (HCC1599; 10 nM): 100%
- normalised viability (HCC1599; 1000 nM): 93.9%
- normalised viability (HCC1599; 10000 nM): 89.7%
- normalised viability (Hs578T; 10 nM): 102%
- normalised viability (Hs578T; 1000 nM): 102%
- normalised viability (Hs578T; 10000 nM): 115%
- normalised viability (MDA-MB-436; 10 nM): 96.6%
- normalised viability (MDA-MB-436; 1000 nM): 109%
- normalised viability (MDA-MB-436; 10000 nM): 102%
- normalised viability (MDA-MB-453; 3 nM): 132%
- normalised viability (MDA-MB-453; 30 nM): 87.3%
- normalised viability (MDA-MB-453; 100 nM): 106%

Compound: CC1(C)NC(=O)N(c2ccc([N+](=O)[O-])c(C(F)(F)F)c2)C1=O [Nilutamide]
- normalised viability (BT-549; 10 nM): 97.2%
- normalised viability (BT-549; 1000 nM): 85.5%
- normalised viability (BT-549; 10000 nM): 97.2%
- normalised viability (CAL-148; 3 nM): 95.5%
- normalised viability (CAL-148; 30 nM): 100%
- normalised viability (CAL-148; 100 nM): 97%
- normalised viability (CAL-85-1; 3 nM): 98%
- normalised viability (CAL-85-1; 30 nM): 88.9%
- normalised viability (CAL-85-1; 100 nM): 100%
- normalised viability (DU-4475; 3 nM): 88%
- normalised viability (DU-4475; 30 nM): 108%
- normalised viability (DU-4475; 100 nM): 90.7%
- normalised viability (HCC1599; 10 nM): 97.9%
- normalised viability (HCC1599; 1000 nM): 82.5%
- normalised viability (HCC1599; 10000 nM): 113%
- normalised viability (Hs578T; 10 nM): 108%
- normalised viability (Hs578T; 1000 nM): 139%
- normalised viability (Hs578T; 10000 nM): 119%
- normalised viability (MDA-MB-436; 10 nM): 113%
- normalised viability (MDA-MB-436; 1000 nM): 110%
- normalised viability (MDA-MB-436; 10000 nM): 102%
- normalised viability (MDA-MB-453; 3 nM): 120%
- normalised viability (MDA-MB-453; 30 nM): 87.5%
- normalised viability (MDA-MB-453; 100 nM): 109%

Compound: O=C1CCC(N2C(=O)c3ccccc3C2=O)C(=O)N1 (stereo unspecified) [Thalidomide]
- normalised viability (BT-549; 10 nM): 76.7%
- normalised viability (BT-549; 1000 nM): 91.5%
- normalised viability (BT-549; 10000 nM): 81.7%
- normalised viability (CAL-148; 3 nM): 115%
- normalised viability (CAL-148; 30 nM): 116%
- normalised viability (CAL-148; 100 nM): 116%
- normalised viability (CAL-85-1; 3 nM): 102%
- normalised viability (CAL-85-1; 30 nM): 98.8%
- normalised viability (CAL-85-1; 100 nM): 101%
- normalised viability (DU-4475; 3 nM): 98.9%
- normalised viability (DU-4475; 30 nM): 99.7%
- normalised viability (DU-4475; 100 nM): 109%
- normalised viability (HCC1599; 10 nM): 101%
- normalised viability (HCC1599; 1000 nM): 86%
- normalised viability (HCC1599; 10000 nM): 102%
- normalised viability (Hs578T; 10 nM): 97.8%
- normalised viability (Hs578T; 1000 nM): 108%
- normalised viability (Hs578T; 10000 nM): 106%
- normalised viability (MDA-MB-436; 10 nM): 106%
- normalised viability (MDA-MB-436; 1000 nM): 87%
- normalised viability (MDA-MB-436; 10000 nM): 96.8%
- normalised viability (MDA-MB-453; 3 nM): 99%
- normalised viability (MDA-MB-453; 30 nM): 99.3%
- normalised viability (MDA-MB-453; 100 nM): 89.7%

Compound: Clc1ccc(Nc2nnc(Cc3ccncc3)c3ccccc23)cc1 [Vatalanib]
- normalised viability (BT-549; 10 nM): 87.3%
- normalised viability (BT-549; 1000 nM): 88.2%
- normalised viability (BT-549; 10000 nM): 85.9%
- normalised viability (CAL-148; 3 nM): 76.1%
- normalised viability (CAL-148; 30 nM): 83.6%
- normalised viability (CAL-148; 100 nM): 82.2%
- normalised viability (CAL-85-1; 3 nM): 90%
- normalised viability (CAL-85-1; 30 nM): 87.6%
- normalised viability (CAL-85-1; 100 nM): 93.4%
- normalised viability (DU-4475; 3 nM): 98.2%
- normalised viability (DU-4475; 30 nM): 100%
- normalised viability (DU-4475; 100 nM): 99%
- normalised viability (HCC1599; 10 nM): 116%
- normalised viability (HCC1599; 1000 nM): 115%
- normalised viability (HCC1599; 10000 nM): 113%
- normalised viability (Hs578T; 10 nM): 115%
- normalised viability (Hs578T; 1000 nM): 104%
- normalised viability (Hs578T; 10000 nM): 84.7%
- normalised viability (MDA-MB-436; 10 nM): 106%
- normalised viability (MDA-MB-436; 1000 nM): 97.5%
- normalised viability (MDA-MB-436; 10000 nM): 85.2%
- normalised viability (MDA-MB-453; 3 nM): 107%
- normalised viability (MDA-MB-453; 30 nM): 112%
- normalised viability (MDA-MB-453; 100 nM): 112%

Reference: the supplement of paper PMC4862054
